Results: ChEMBL document CHEMBL1121676, “1980 Award in Medicinal Chemistry: Medicinal chemistry and dynamic structure-activity analysis in the discovery of drugs acting at histamine H2 receptors” (1981)
The source made the active and inactive calls. No cut-off for these calls is given here.

Experiments:
Rattus norvegicus [1] = test: Tested for inhibition of histamine-stimulated gastric acid secretion in the lumen-perfused anesthetized rat expressed as intravenous dose which reduces a near maximal secretion to 50%; detectable; format: functional, organism-based; settings: Stomach
Rattus norvegicus [2] = test: Tested for inhibition of histamine-stimulated gastric acid secretion in the lumen-perfused anesthetized rat expressed as intravenous dose which reduces a near maximal secretion to 50%; format: functional; settings: Stomach, read-out: ID50 (the source's name)

Row | Compound | ID50 (Rattus norvegicus [1]) | ED50 (Rattus norvegicus [2]) [µmol/kg]
1 | CC(=N)NCCc1c[nH]cn1 | detectable | 
2 | CC(=N)NCCCc1c[nH]cn1 |  | 100
3 | N=C(N)NCCc1c[nH]cn1 |  | > 500
4 | CSC(=N)NCCCc1c[nH]cn1 |  | 100
5 | CSC(=N)NCCc1c[nH]cn1 | detectable | 
6 | N=C(N)NCCCc1c[nH]cn1 |  | 100
7 | N=C(N)SCCc1c[nH]cn1 [IMETIT] |  | 200
8 | N=C(N)SCCCc1c[nH]cn1 | inactive | 
